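A five-concentration, 48-hour dose response in 96-well plates underlies each endpoint, interpolated linearly between surrounding concentrations. Abbreviation: GI50, concentration required for 50% inhibition of growth.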 Activity calls are given as the source filed them. Cut-off read from the data, not from the text of the source: active = GI50 up to about 1.1 µM and inactive = higher.
What was measured:
Experiment in all cases: NCI tumour cell line growth inhibition, 48 h
Malme-3M = system: Malme-3M
K562 = system: K562
COLO 205 = system: COLO 205
NCI-H226 = system: NCI-H226
LXFL 529 = system: LXFL 529
SNB-78 = system: SNB-78
M19-MEL = system: M19-MEL
HT-29 = system: HT-29
SNB-19 = system: SNB-19
RXF 393 = system: RXF 393
SK-MEL-5 = system: SK-MEL-5
OVCAR-5 = system: OVCAR-5
NCI-H460 = system: NCI-H460
ACHN = system: ACHN
OVCAR-3 = system: OVCAR-3
BT-549 = system: BT-549
CAKI-1 = system: CAKI-1
SR = system: SR
DLD-1 = system: DLD-1
KM12 = system: KM12

Measured: GI50

COC1=C(N=[N+]=[N-])C(=O)c2ncccc2C1=O
inactive: Malme-3M 2.33 µM | K562 2.84 µM | COLO 205 3.04 µM | NCI-H226 19.2 µM | LXFL 529 1.72 µM | SNB-78 5.7 µM | M19-MEL 1.91 µM | HT-29 18.4 µM | SNB-19 17.1 µM | RXF 393 3.75 µM | SK-MEL-5 10.1 µM | OVCAR-5 19.5 µM | NCI-H460 15.7 µM | ACHN 4.28 µM | OVCAR-3 5.57 µM | BT-549 10.8 µM | CAKI-1 5.58 µM | SR 2.36 µM | DLD-1 1.65 µM | KM12 15.6 µM

O=S(=O)(O)c1cc(/N=N/c2cc(S(=O)(=O)O)c3ccccc3c2O)ccc1/C=C/c1ccc(/N=N/c2cc(S(=O)(=O)O)c3ccccc3c2O)cc1S(=O)(=O)O
inactive: Malme-3M > 333 µM | K562 30.1 µM | NCI-H226 270 µM | LXFL 529 > 1000 µM | SNB-78 > 100 µM | M19-MEL > 100 µM | HT-29 > 457 µM | SNB-19 > 733 µM | RXF 393 > 771 µM | SK-MEL-5 86.7 µM | OVCAR-5 146 µM | NCI-H460 > 437 µM | ACHN > 483 µM | OVCAR-3 > 553 µM | BT-549 284 µM | CAKI-1 > 574 µM | SR 27 µM | DLD-1 > 100 µM

O=C1C(Nc2ccc(S(=O)(=O)Nc3cnc4ccccc4n3)cc2)=C/C(=N\c2ccc(S(=O)(=O)Nc3cnc4ccccc4n3)cc2)c2ccccc21
inactive: Malme-3M 17.9 µM | K562 28.1 µM | COLO 205 18.5 µM | NCI-H226 20.6 µM | LXFL 529 15.2 µM | SNB-78 22.5 µM | M19-MEL 16.6 µM | HT-29 20.4 µM | SNB-19 15.3 µM | RXF 393 17.7 µM | SK-MEL-5 17.5 µM | OVCAR-5 16.3 µM | NCI-H460 16.7 µM | ACHN 30.7 µM | OVCAR-3 19.8 µM | CAKI-1 16.4 µM | SR 31.4 µM | DLD-1 17.9 µM | KM12 16.9 µM

CC(=O)CC(=O)ON(C)C(C)=O
inactive: Malme-3M > 100 µM | K562 > 100 µM | COLO 205 > 100 µM | NCI-H226 > 100 µM | LXFL 529 > 100 µM | SNB-78 > 100 µM | M19-MEL > 100 µM | HT-29 > 100 µM | SNB-19 > 100 µM | RXF 393 > 100 µM | SK-MEL-5 > 100 µM | OVCAR-5 > 100 µM | NCI-H460 > 100 µM | ACHN > 100 µM | OVCAR-3 > 100 µM | CAKI-1 > 100 µM | SR > 100 µM | DLD-1 > 100 µM | KM12 > 100 µM

Nc1ccc(C(=O)/C=C/c2ccccc2O)cc1
inactive: Malme-3M > 100 µM | K562 > 100 µM | COLO 205 > 100 µM | NCI-H226 > 100 µM | LXFL 529 > 100 µM | SNB-78 > 100 µM | M19-MEL > 100 µM | HT-29 > 100 µM | SNB-19 > 100 µM | RXF 393 > 100 µM | SK-MEL-5 > 100 µM | OVCAR-5 > 100 µM | NCI-H460 > 100 µM | ACHN > 100 µM | OVCAR-3 > 100 µM | CAKI-1 > 100 µM | SR > 100 µM | DLD-1 > 100 µM | KM12 > 100 µM

COc1ccccc1C(=O)N(Cc1ccccc1)c1ccc(Cl)c(C(=O)OC(C)C)c1
inactive: Malme-3M 21.9 µM | K562 6.89 µM | COLO 205 20.9 µM | NCI-H226 13.6 µM | LXFL 529 23 µM | SNB-78 19.1 µM | M19-MEL 25.8 µM | HT-29 16.6 µM | SNB-19 24.3 µM | RXF 393 11.8 µM | SK-MEL-5 11.7 µM | OVCAR-5 > 63.1 µM | NCI-H460 21.4 µM | ACHN 25 µM | OVCAR-3 17.7 µM | BT-549 34.4 µM | CAKI-1 12.3 µM | DLD-1 18.1 µM | KM12 21.2 µM

Source: ChEMBL document CHEMBL1201862, “PubChem BioAssay data set” (2004)
